According to US11191773B2, “Methods of treatment for bacterial infections” (President and Fellows of Harvard College, priority 2017, dated 2021):
Like-named read-outs stand apart in the source and are kept apart here. Bridge positions count the residues as written; N and C are the ends. Square brackets hold non-standard residues; d marks the D form. Peptide text beside a SMILES is read from it. * marks the point of attachment. Ileψ(thiazoline)Cys = CC[C@H](C)[C@H](N)C1=N[C@H](C(=O)*)CS1; dOrn = NCCC[C@@H](N)C(=O)O

Tests used:
Type in all cases: cell-based, E. coli
lptB1 = experiment: Disk diffusion assay; details: for zone of inhibition at 5 µg/disc / zone of inhibition at 15 µg/disc: Escherichia coli; for Zone of inhibition, diameter of the zone of total growth inhibition: 6-mm disks, bacitracin 10IU, erythromycin 15 μg, novobiocin 30 μg, rifampin 5 μg, nalidixic acid 5 μg
Experimental: (§1) Zones of inhibition were measured in disk diffusion assays of wild type, IptB1, and suppressors IptB1(R144H) and IptB1(G33C) pictured in FIG. 6B. Assays were conducted with 6-mm disks. Numbers outside of parentheses report the diameter of the zone of total growth inhibition (in mm), while numbers inside parenthesis report the diameter of the zone of partial growth inhibition.
(§2) Disk diffusion assays were performed as described in Sherman et al., Proc. Natl. Acad. Sci. USA 2014, 111, 4982-4987. Premade Sensi-Disc (BD-Beckton, Dickinson and Company) were used for bacitracin 10IU, erythromycin 15 μg, novobiocin 30 μg, and rifampin 5 μg.

wild type = experiment: Disk diffusion assay; details: 6-mm disks, bacitracin 10IU, erythromycin 15 μg, novobiocin 30 μg, rifampin 5 μg, nalidixic acid 5 μg
Experimental: as §1, §2

lptB1(R144H) = experiment: Disk diffusion assay; details: for Zone of inhibition, diameter of the zone of total growth inhibition: 6-mm disks, bacitracin 10IU, erythromycin 15 μg, novobiocin 30 μg, rifampin 5 μg, nalidixic acid 5 μg
Experimental: as §1, §2

lptB1(G33C) = experiment: Disk diffusion assay
Experimental: as §1, §2

IptFG(ch) mutant = experiment: Rescue of growth of coupling helix mutant (plating and disk assays); details: disks on LB plates, each disk 5 μg compound (FIG. 15)
Experimental: FIG. 8B is a series of pictures of bacterial overnight cultures grown in minimal medium. The cultures were serially diluted ten-fold and spotted onto LB agar plates with and without compounds.
FIG. 15 is a picture of bacterial lawns grown on plates in the presence of disks containing antibiotics. […] Strains were grown overnight in minimal media and then plated on LB plates. Each disk contained 5 μg compound.
The coupling helices in LptFG each contain a strictly-conserved glutamate, and changing both glutamates to alanine (IptFG(ch)) causes a lethal loss of function (FIG. 8B, LB panel). […] Because novobiocin also contacts R91 (FIG. 7C), we speculated that it might rescue growth of IptFG(ch) by masking the charge. […] We conclude that novobiocin suppresses Lpt defects in vivo by interacting with LptB at R91; therefore, novobiocin interacts with LptB in cells in a similar manner to that observed in the crystal structure.
as §2
Efficiency of plating assays were performed on indicated media using the method described in Butler et al., J. Bacteriol. 2013, 195, 4639-4649.

[1] = read-out: Zone of inhibition, diameter of the zone of partial growth inhibition (in parentheses)
[2] = read-out: Zone of inhibition, diameter of the zone of total growth inhibition
[3] = Escherichia coli, read-out: Zone of inhibition, diameter of the zone of partial growth inhibition (in parentheses)
[4] = Escherichia coli, read-out: Zone of inhibition, diameter of the zone of total growth inhibition
[5] = 6-mm disks, bacitracin 10IU, erythromycin 15 μg, novobiocin 30 μg, rifampin 5 μg, nalidixic acid 5 μg

With `CCn1cc(C(=O)O)c(=O)c2ccc(C)nc21` [Nalidixic acid] the zone of inhibition at 5 µg/disc (lptB1; [1]) was 21 mm, the zone of inhibition at 5 µg/disc (lptB1; [2]) was 18 mm and the zone of inhibition at 5 µg/disc (wild type; [3]) was 14 mm. For the same molecule, the zone of inhibition at 5 µg/disc (wild type; [4]) was 11 mm, the zone of inhibition at 5 µg/disc (lptB1(R144H); [3]) was 20 mm and the zone of inhibition at 5 µg/disc (lptB1(R144H); [4]) was 17 mm. The zone of inhibition at 5 µg/disc (lptB1(G33C); [3]) was 14 mm, the zone of inhibition at 5 µg/disc (lptB1(G33C); [4]) was 12 mm and the “suppression of lethality of IptFG(ch)” value (IptFG(ch) mutant) was “but not nalidixic acid (NA), suppressed the lethality of IptFG(ch)”.
For `CC[C@H]1OC(=O)[C@H](C)[C@@H](O[C@H]2C[C@@](C)(OC)[C@@H](O)[C@H](C)O2)[C@H](C)[C@@H](O[C@@H]2O[C@H](C)C[C@H](N(C)C)[C@H]2O)[C@](C)(O)C[C@@H](C)C(=O)[C@H](C)[C@@H](O)[C@]1(C)O` [Erythromycin], the zone of inhibition at 15 µg/disc (lptB1; [1]) was 21 mm, the zone of inhibition at 15 µg/disc (lptB1; [2]) was 16 mm and the zone of inhibition at 15 µg/disc (wild type; [3]) was 8 mm. It also gave a zone of inhibition at 15 µg/disc (lptB1(R144H); [3]) of 16 mm and a zone of inhibition at 15 µg/disc (lptB1(G33C); [3]) of 11 mm.
`CO[C@H]1/C=C/O[C@@]2(C)Oc3c(C)c(O)c4c(O)c(c(/C=N/N5CCN(C)CC5)c(O)c4c3C2=O)NC(=O)/C(C)=C\C=C\[C@H](C)[C@H](O)[C@@H](C)[C@@H](O)[C@@H](C)[C@H](OC(C)=O)[C@@H]1C` [Rifampicin] was tested, and the “Zone of inhibition, diameter of the zone of total growth inhibition” value (from here on “Zone … of total growth inhibition”) (lptB1) was 17 mm, the “Zone of inhibition, diameter of the zone of partial growth inhibition (in parentheses)” value (wild type) was 9 mm and the “Zone … of total growth inhibition” value (wild type) was 8 mm. For the same molecule, the “Zone … of total growth inhibition” value (lptB1(R144H)) was 24 mm and the “Zone … of total growth inhibition” value (lptB1(G33C); [5]) was 9 mm.
For `CC[C@H](C)[C@H](N)C1=N[C@H](C(=O)N[C@@H](CC(C)C)C(=O)N[C@H](CCC(=O)O)C(=O)N[C@H](C(=O)N[C@H]2CCCCNC(=O)[C@H](CC(N)=O)NC(=O)[C@@H](CC(=O)O)NC(=O)[C@H](Cc3cnc[nH]3)NC(=O)[C@@H](Cc3ccccc3)NC(=O)[C@H]([C@@H](C)CC)NC(=O)[C@@H](CCCN)NC2=O)[C@@H](C)CC)CS1` [Bacitracin] ({Ileψ(thiazoline)Cys}-L[dE]IK[dOrn]I[dF]H[dD]N; lactam 4-C), the “Zone … of total growth inhibition” value (lptB1) was 17 mm, the “Zone … of total growth inhibition” value (wild type) was <6 mm and the “Zone … of total growth inhibition” value (lptB1(R144H)) was 17 mm. For the same molecule, the “Zone of inhibition, diameter of the zone of partial growth inhibition (in parentheses)” value (lptB1(G33C); [5]) was “(8) mm”.
